system: Pseudomonas aeruginosa PAO1 MB9798 (efflux+, IMP-1); details: ratio MITC95 PA 9798/MITC95 PA 9799; imipenem at 2 μg/mL
From the text: The strain background was Pseudomonas aeruginosa PAO1.
The strain set was then used as a pair to determine the effect of metallo-β-lactamase inhibitors of Formula I on the MIC of imipenem and/or ceftazidime. A fixed concentration of antibiotic was included in standard microbroth MIC tests, usually at the CLSI (Clinical and Laboratory Standards Institute) breakpoint concentration. A fixed amount of a class A/C beta-lactamase inhibitor was also included to inhibit the resident Pseudomonas AmpC enzyme. A serial titration of the metallo-β-lactamase inhibitor was included and the concentration of metallo-β-lactamase inhibitor which restores susceptibility of the strain to the included antibiotic was recorded. That concentration of metallo-β-lactamase inhibitor was then compared between the two strains to determine the fold difference between the efflux + (MB9798) and efflux − (MB9799) strains. This was taken as an indication of the extent to which the MBLi is subject to efflux.

NCCNS(=O)(=O)c1ccc(-c2cccc(C(=O)NC[C@H](N)CO)c2N)c(-c2nn[nH]n2)c1S(N)(=O)=O [Example 333, (S)-2-amino-N-(2-amino-3-hydroxypropyl)-4′-(N-(2-aminoethyl)sulfamoyl)-3′-sulfamoyl-2′-(2H-tetrazol-5-yl)-[1,1′-biphenyl]-3-carboxamide] and NCCNS(=O)(=O)c1ccc(-c2cccc3[nH]nnc23)c(-c2nn[nH]n2)c1S(N)(=O)=O [Example 236, N^1-(2-aminoethyl)-4-(1H-benzo[d][1,2,3]triazol-4-yl)-3-(2H-tetrazol-5-yl)benzene-1,2-disulfonamide] are the same in Efflux ratio: 1.00 for the first, 1.00 for the second.

Compared with CN(C)S(=O)(=O)c1ccc(-c2cccc3sc(N)nc23)c(-c2nn[nH]n2)c1S(N)(=O)=O [Example 151, 4-(2-aminobenzo[d]thiazol-4-yl)-N1,N1-dimethyl-3-(2H-tetrazol-5-yl)benzene-1,2-disulfonamide], CN(C1CCCNC1)S(=O)(=O)c1ccc(-c2cccc3sc(N)nc23)c(-c2nnn[nH]2)c1S(N)(=O)=O (centres unmarked) [Example 64, 4-(2-amino-1,3-benzothiazol-4-yl)-N1-methyl-N1-piperidin-3-yl-3-(1H-tetrazol-5-yl)benzene-1,2-disulfonamide] is lower in Efflux ratio: 16.00 for the first, 2.00 for the second.

First: COCCNS(=O)(=O)c1ccc(-c2cccc3sc(N)nc23)c(-c2nnn[nH]2)c1S(N)(=O)=O [Example 24, 4-(2-amino-1,3-benzothiazol-4-yl)-N^1-(2-methoxyethyl)-3-(1H-tetrazol-5-yl)benzene-1,2-disulfonamide]
Second: Nc1nc2c(-c3ccc(S(=O)(=O)NCC4CCC(=O)N4)c(S(N)(=O)=O)c3-c3nnn[nH]3)cccc2s1 (centres unmarked) [Example 19, 4-(2-amino-1,3-benzothiazol-4-yl)-N1-[(5-oxopyrrolidin-2-yl)methyl]-3-(1H-tetrazol-5-yl)benzene-1,2-disulfonamide]
The Efflux ratio of the first is higher: 4.00 for the first, 1.00 for the second.

Nc1nc2c(-c3ccc(S(=O)(=O)NC4CN5CCC4CC5)c(S(N)(=O)=O)c3-c3nnn[nH]3)cccc2s1.O=C(O)C(F)(F)F (centres unmarked) [Example 97, 3-(4-(2-aminobenzo[d]thiazol-4-yl)-2-sulfamoyl-3-(1H-tetrazol-5-yl)phenylsulfonamido) quinuclidin-1-ium 2,2,2-trifluoroacetate] and NCC1CCCCN1S(=O)(=O)c1ccc(-c2cccc3sc(N)nc23)c(-c2nnn[nH]2)c1S(N)(=O)=O.O=C(O)C(F)(F)F (centres unmarked) [Example 110, (1-((4-(2-aminobenzo[d]thiazol-4-yl)-2-sulfamoyl-3-(1H-tetrazol-5-yl)phenyl)sulfonyl)piperidin-2-yl)methanaminium 2,2,2-trifluoroacetate] are the same in Efflux ratio: 1.00 for the first, 1.00 for the second.

NC(=O)c1ccc(-c2ccc(S(=O)(=O)N[C@@H]3CCNC3)c(S(N)(=O)=O)c2-c2nnn[nH]2)cc1 [Example 137, (R)-4′-(N-(pyrrolidin-3-yl)sulfamoyl)-3′-sulfamoyl-2′-(1H-tetrazol-5-yl)-[1,1′-biphenyl]-4-carboxamide] and Nc1cncc(-c2ccc(S(=O)(=O)N[C@@H]3CCNC3)c(S(N)(=O)=O)c2-c2nn[nH]n2)c1 [Example 219, (R)-4-(5-aminopyridin-3-yl)-N1-(pyrrolidin-3-yl)-3-(2H-tetrazol-5-yl)benzene-1,2-disulfonamide] are the same in Efflux ratio: 1.00 for the first, 1.00 for the second.

Compared with Nc1nc2c(-c3ccc(S(=O)(=O)N4CCC(CO)CC4)c(S(N)(=O)=O)c3-c3nnn[nH]3)cccc2s1 [Example 25, 3-(2-amino-1,3-benzothiazol-4-yl)-6-{[4-(hydroxymethyl)piperidin-1-yl]sulfonyl}-2-(1H-tetrazol-5-yl)benzenesulfonamide], Nc1nc2c(-c3ccc(S(=O)(=O)N4CC[S+]([O-])CC4)c(S(N)(=O)=O)c3-c3nnn[nH]3)cccc2s1 [Example 44, 3-(2-amino-1,3-benzothiazol-4-yl)-6-[(1-oxidothiomorpholin-4-yl)sulfonyl]-2-(1H-tetrazol-5-yl)benzenesulfonamide] is lower in Efflux ratio: 16.00 for the first, 2.00 for the second.

First: Nc1nc2c(-c3ccc(S(=O)(=O)N4CC5(CCNC5)C4)c(S(N)(=O)=O)c3-c3nnn[nH]3)cccc2s1 [Example 48, 3-(2-amino-1,3-benzothiazol-4-yl)-6-(2,6-diazaspiro[3.4]oct-2-ylsulfonyl)-2-(1H-tetrazol-5-yl)benzenesulfonamide]
Second: Nc1nc2c(-c3ccc(S(=O)(=O)NCC4(O)CCNCC4)c(S(N)(=O)=O)c3-c3nnn[nH]3)cccc2s1 [Example 86, 4-(2-aminobenzo[d]thiazol-4-yl)-N^1-((4-hydroxypiperidin-4-yl)methyl)-3-(1H-tetrazol-5-yl)benzene-1,2-disulfonamide]
The Efflux ratio of the first is higher: 1.00 for the first, 0.50 for the second.

Compared with CN1CC[C@@H](NS(=O)(=O)c2ccc(-c3cccc4[nH]c(N)nc34)c(-c3nn[nH]n3)c2S(N)(=O)=O)C1 [Example 232, (R)-4-(2-amino-1H-benzo[d]imidazol-4-yl)-N^1-(1-methylpyrrolidin-3-yl)-3-(2H-tetrazol-5-yl)benzene-1,2-disulfonamide], C[C@H](N)CNS(=O)(=O)c1ccc(-c2cccc3[nH]c(N)nc23)c(-c2nn[nH]n2)c1S(N)(=O)=O [Example 184, 4-(2-amino-1H-benzo[d]imidazol-4-yl)-N1-((S)-2-aminopropyl)-3-(2H-tetrazol-5-yl)benzene-1,2-disulfonamide] is lower in Efflux ratio: 2.00 for the first, 1.00 for the second.

NS(=O)(=O)c1c(S(=O)(=O)N[C@@H]2CCNC2)ccc(-c2cccc3[nH]cnc23)c1-c1nn[nH]n1 [Example 193, 4-(1H-benzo[d]imidazol-4-yl)-N1-((R)-pyrrolidin-3-yl)-3-(2H-tetrazol-5-yl)benzene-1,2-disulfonamide] and Cn1c(N)nc2c(-c3ccc(S(=O)(=O)N[C@H]4CCNC4)c(S(N)(=O)=O)c3-c3nn[nH]n3)cccc21 [Example 163, 4-(2-amino-1-methyl-1H-benzo[d]imidazol-4-yl)-N^1-((S)-pyrrolidin-3-yl)-3-(2H-tetrazol-5-yl)benzene-1,2-disulfonamide] are the same in Efflux ratio: 1.00 for the first, 1.00 for the second.

Going from NCCNS(=O)(=O)c1ccc(-c2cccc3nonc23)c(-c2nn[nH]n2)c1S(N)(=O)=O [Example 239, N^1-(2-aminoethyl)-4-(benzo[c][1,2,5]oxadiazol-4-yl)-3-(2H-tetrazol-5-yl)benzene-1,2-disulfonamide] to NS(=O)(=O)c1ccc(-c2cccc3cn[nH]c23)c(-c2nn[nH]n2)c1S(N)(=O)=O [Example 3, 4-(1H-indazol-7-yl)-3-(2H-tetrazol-5-yl)benzene-1,2-disulfonamide], the Efflux ratio falls from 8.00 to 2.00.

Compared with Nc1nc2c(-c3ccc(S(=O)(=O)NC[C@H]4CCNC4)c(S(N)(=O)=O)c3-c3nnn[nH]3)cccc2s1 [Example 73, 4-(2-amino-1,3-benzothiazol-4-yl)-N^1-[(3S)-pyrrolidin-3-ylmethyl]-3-(1H-tetrazol-5-yl)benzene-1,2-disulfonamide], Nc1nc2c(-c3ccc(S(=O)(=O)NC[C@@H]4CCNC4)c(S(N)(=O)=O)c3-c3nnn[nH]3)cccc2s1 [Example 75, 4-(2-amino-1,3-benzothiazol-4-yl)-N^1-[(3R)-pyrrolidin-3-ylmethyl]-3-(1H-tetrazol-5-yl)benzene-1,2-disulfonamide] is higher in Efflux ratio: 0.50 for the first, 1.00 for the second.

Going from Nc1nc2c(-c3ccc(S(=O)(=O)NCCN4CCNC(=O)C4)c(S(N)(=O)=O)c3-c3nnn[nH]3)cccc2s1 [Example 15, 4-(2-amino-1,3-benzothiazol-4-yl)-N1-[2-(3-oxopiperazin-1-yl)ethyl]-3-(1H-tetrazol-5-yl)benzene-1,2-disulfonamide] to Nc1nc2c(-c3ccc(S(=O)(=O)N[C@@H]4CCCNC4)c(S(N)(=O)=O)c3-c3nnn[nH]3)cccc2s1 [Example 69, 4-(2-amino-1,3-benzothiazol-4-yl)-N1-[(3R)-piperidin-3-yl]-3-(1H-tetrazol-5-yl)benzene-1,2-disulfonamide], the Efflux ratio falls from 1.00 to 0.50.

Compared with NCCNS(=O)(=O)c1ccc(C2CCC[C@H](N)C2)c(-c2nn[nH]n2)c1S(N)(=O)=O (stereo partly drawn) [Example 342, 4-((3S)-3-aminocyclohexyl)-N1-(2-aminoethyl)-3-(2H-tetrazol-5-yl)benzene-1,2-disulfonamide], Nc1nc2c(-c3ccc(S(=O)(=O)N[C@@H]4CNC[C@@H]4F)c(S(N)(=O)=O)c3-c3nnn[nH]3)cccc2s1 [Example 58, 4-(2-amino-1,3-benzothiazol-4-yl)-N1-[(3R,4S)-4-fluoropyrrolidin-3-yl]-3-(1H-tetrazol-5-yl)benzene-1,2-disulfonamide] is lower in Efflux ratio: 4.00 for the first, 1.00 for the second.

First: CN(C1CCS(=O)(=O)C1)S(=O)(=O)c1ccc(-c2cccc3sc(N)nc23)c(-c2nnn[nH]2)c1S(N)(=O)=O (centres unmarked) [Example 41, 4-(2-amino-1,3-benzothiazol-4-yl)-N^1-(1,1-dioxidotetrahydrothiophen-3-yl)-N~1~-methyl-3-(1H-tetrazol-5-yl)benzene-1,2-disulfonamide]
Second: CN(C1CNC1)S(=O)(=O)c1ccc(-c2cccc3sc(N)nc23)c(-c2nnn[nH]2)c1S(N)(=O)=O.O=C(O)C(F)(F)F [Example 105, 3-(4-(2-aminobenzo[d]thiazol-4-yl)-N-methyl-2-sulfamoyl-3-(1H-tetrazol-5-yl)phenylsulfonamido) azetidin-1-ium 2,2,2-trifluoroacetate]
The Efflux ratio of the first is higher: 8.00 for the first, 1.00 for the second.

For CC(N)CNS(=O)(=O)c1ccc(-c2cccc3sc(N)nc23)c(-c2nnn[nH]2)c1S(N)(=O)=O.O=C(O)C(F)(F)F (stereo not drawn) [Example 109, l-(4-(2-aminobenzo[d]thiazol-4-yl)-2-sulfamoyl-3-(1H-tetrazol-5-yl)phenylsulfonamido) propan-2-aminium 2,2,2-trifluoroacetate], the Efflux ratio was 0.50.

— patent publication US10544130B2, “Metallo-beta-lactamase inhibitors” (priority 2015, dated 2020)
